According to patent publication US20250136581A1, “SUBSTITUTED TRIAZOLE DERIVATIVE, PREPARATION METHOD THEREFOR, PHARMACEUTICAL COMPOSITION THEREOF, AND USE THEREOF” (SHANGHAI SIMR BIOTECHNOLOGY CO., LTD., priority 2021, published 2025):
Like-named read-outs stand apart in the source and are kept apart here.

Legend:
[1] = biological target: human α5β3γ2 receptors (α5-GABAA receptor) (Homo sapiens (Human), UniProt P18507+P31644); test: 3H-flunitrazepam competition binding, human α5β3γ2 GABAA receptor; settings: HEK293 cell membranes, 1 nM 3H-flunitrazepam; read-out: α5-GABAAR Ki
Summary of the method: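 Radioligand displacement of 1 nM 3H-flunitrazepam from membranes of HEK293 lines stably expressing the human subtypes, 1 h at room temperature, compound in 8-point 4-fold series. Bound label on GF/C filters counted by scintillation; Ki derived from fitted IC50, with flumazenil as low control.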

[2] = Rat pharmacokinetic experiment; format: in vivo; settings: rat, po; for Kp: male, SD, brain / plasma, read-out: B/P (proportion of compounds entering the brain); for Cmax: plasma, male SD rats
Method: The maximum plasma concentration (Cmax) in the rat pharmacokinetic experiment was used to evaluate the absorption of the compounds in rat in vivo. The experimental compound was dissolved and then orally administered by gavage (p.o.) to male SD rats. The rats were fasted overnight before drug administration, and blood was collected via venipuncture at 0.25, 0.5, 1, 2, 4, and 7 hours post dose. Approximately 100 μL blood was collected for each sample; at the same time, the whole brain was taken and homogenized with 3 times the amount of PBS for analysis. The […] method was used to determine drug concentrations in plasma and brain tissue, and the proportion of compounds entering the brain (B/P) was calculated based on the AUC of the compound. Pharmacokinetic parameters were calculated using Phoenix WinNonlin 7.0. The administration vehicle was 5% CMC-Na aqueous solution.

[3] = biological target: α5-GABAA receptor (α5, β3, γ2 subunits) (Homo sapiens (Human), UniProt P18507+P31644); test: Whole cell patch clamp, inverse agonist efficacy in HEK293 cells expressing α5-GABAA receptor; format: cell-based; settings: HEK293, drug 100 nM, GABA 0.05 μM, −60 mV; read-out: Compound inverse agonist efficacy %
Summary of the method: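 Compounds screened at 100 nM against current induced by 0.05 μM GABA in monoclonal HEK293 cells stably expressing α5β3γ2 GABAA receptors. Recording by whole-cell voltage clamp (−60 mV, pH 7.4 bath, CsCl pipette); efficacy calculated from leak-corrected currents before and after drug.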

[4] = biological target: human α2β3γ2 receptors (Homo sapiens (Human), UniProt P18507+P47869); test: 3H-flunitrazepam competition binding, human α2β3γ2 GABAA receptor; settings: HEK293 cell membranes, 1 nM 3H-flunitrazepam; read-out: Ki α2
Method: (§1) The affinity of the compound to each subtype of GABAA receptor was determined by competing for the binding of ^3H-flunitrazepam to HEK293 cells stably expressing human α1β3γ2, α2β3γ2, α3β3γ2, and α5β3γ2 receptors.
(§2) The cells were suspended in 50 mM Tris-HCl buffer (pH=7.4), homogenized 10 times on ice with a homogenizer for 20 seconds, and centrifuged at 1000 g for 10 minutes at 4° C. The supernatant was collected, and the above steps were repeated. The supernatant was centrifuged at 4° C. (33800 g; Thermo, rotor: A27-8×50) for 60 minutes, and the precipitate was resuspended in Tris buffer (50 mM Tris-HCl, 10 mM MgCl2, 0.5 mM EDTA, 10% glycerol). Protein was measured (BCA method, Pierce), and 1 mL aliquots were prepared and stored at −80° C.
(§3) The radioligand competition binding assay was performed in a 200 μL system (96-well plate) containing 100 μL of cell membrane. The concentration of ^3H-flunitrazepam was 1 nM and the concentration of the test compound was in the range of […]. Flumazenil was used as a control. 1 μL of 2 mM flumazenil (final concentration […]) was added to the low signal control well (Low control, LC), and 1 μL of DMSO was added to the high signal control well (High control, HC). The final concentration of target membrane protein was […]. All test compound sample storage solutions were 10 mM. The working concentration of the samples was to dilute all the samples to 0.2 mM with DMSO, followed by 4-fold serial gradient dilutions for a total of 8 concentration gradients. The 96-well plate was sealed with a sealing film, and then incubated on a shaker at room temperature for 1 hour. At the same time, the GF/C filter plate was soaked in soaking buffer (0.3% PEI, stored at 4° C.) for at least 0.5 hours. After the binding incubation was completed, the cells were collected onto a GF/C filter plate using a cell harvester. The plate was washed four times with washing buffer (50 mM Tris-HCl, pH 7.4, stored at 4° C.). After drying in a 50° C. oven for 1 hour, the bottom of the dried GF/C filter plate was sealed. The residual radioactivity on the filter membrane was detected using liquid scintillation counting. 50 μL of scintillation fluid was added to each well, and the plate was sealed. The readings were taken using a Microbeta2. The inhibitory activity of the test sample on the binding of ^3H-flunitrazepam to GABAA receptor membrane proteins was calculated, and the IC50 of each test sample was calculated by dose-effect curve fitting (GraphPad Prism 5 software), and the Ki of the sample was calculated from the IC50, thus evaluating the binding ability of the sample to the various subtypes of GABAA receptors.

[5] = biological target: human α1β3γ2 receptors (Homo sapiens (Human), UniProt P14867+P18507); test: 3H-flunitrazepam competition binding, human α1β3γ2 GABAA receptor; settings: HEK293 cell membranes, 1 nM 3H-flunitrazepam; read-out: Ki α1
Method: as §1, §2, §3

[6] = biological target: human α3β3γ2 receptors (Homo sapiens (Human), UniProt P18507+P34903); test: 3H-flunitrazepam competition binding, human α3β3γ2 GABAA receptor; settings: HEK293 cell membranes, 1 nM 3H-flunitrazepam; read-out: Ki α3
Method: as §1, §2, §3

| SMILES | Ki [1] | Kp ([2]; 3 mg/kg) | Cmax ([2]; 3 mg/kg) | inhibition at 0.1 µM [3] | Ki [4] | Kp ([2]; 1 mg/kg) | Cmax ([2]; 1 mg/kg) | Ki [5] | Ki [6] |
| --- | --- | --- | --- | --- | --- | --- | --- | --- | --- |
| Cc1nnn(-c2ccc(C(F)F)cc2)c1COc1ccc(N2CC(=O)N3CCC[C@H]3C2)nn1 [Example 14, (S)-2-(6-((1-(4-(difluoromethyl)phenyl)-4-methyl-1H-1,2,3-triazol-5-yl)methoxy)pyridazin-3-yl)hexahydropyrrolo[1,2-a]pyrazin-4(1H)-one] | 0.00124 µM | 0.0135 | 2700 ng/mL | 45.7% | – | – | – | – | – |
| Cc1nnn(-c2ccc(C(F)F)cc2)c1COc1ccc(N2CCNC(=O)C2)cn1 [Example 21, 4-(6-[(1-(4-(Difluoromethyl)phenyl)-4-methyl-1H-1,2,3-triazol-5-yl)methoxy]pyridin-3-yl)piperazin-2-one] | 0.00124 µM | – | – | 49.3% | 0.0417 µM | 0.045 | 576 ng/mL | 0.0367 µM | 0.0218 µM |
| Cc1nnn(-c2ccc(C(F)F)cc2)c1COc1ccc(N2CCN3CCNC(=O)[C@@H]3C2)cn1 [Example 56, (S)-8-(6-((1-(4-(Difluoromethyl)phenyl)-4-methyl-1H-1,2,3-triazol-5-yl)methoxy)pyridin-3-yl)octahydro-1H-pyrazino[1,2-a]pyrazin-1-one] | 0.00799 µM | 0.0261 | 2050 ng/mL | 53.4% | 0.33 µM | – | – | – | – |
| Cc1nnn(-c2ccc(F)cc2)c1COc1ccc(N2CCNC(=O)C2)nn1 [Example 76, 4-(6-((1-(4-Fluorophenyl)-4-methyl-1H-1,2,3-triazol-5-yl)methoxy)pyridazin-3-yl)piperazin-2-one] | 0.00287 µM | – | – | 45.3% | 0.301 µM | – | – | 0.832 µM | 0.173 µM |
| N#Cc1nnn(-c2ccc(C(F)F)cc2)c1COc1ccc(N2CCNC(=O)C2)nn1 [Example 78, 1-(4-(Difluoromethyl)phenyl)-5-(((6-(3-oxopiperazin-1-yl)pyridazin-3-yl)oxy)methyl)-1H-1,2,3-triazole-4-carbonitrile] | 0.00203 µM | – | – | 43.7% | 0.0459 µM | – | – | 0.246 µM | 0.0284 µM |
| O=C1CN(c2ccc(OCc3c(CO)nnn3-c3ccc(C(F)F)cc3)nn2)CCN1 [Example 80, 4-(6-((1-(4-(Difluoromethyl)phenyl)-4-(hydroxymethyl)-1H-1,2,3-triazol-5-yl)methoxy)pyridazin-3-yl)piperazin-2-one] | 0.00082 µM | – | – | 54.8% | 0.0227 µM | – | – | 0.161 µM | 0.016 µM |
| Cc1nnn(-c2ccc(C(F)F)cc2)c1COc1ccc(N2CC(C(=O)Nc3cnn(C)c3)C2)nn1 [Example 103, 1-(6-((1-(4-(Difluoromethyl)phenyl)-4-methyl-1H-1,2,3-triazol-5-yl)methoxy)pyridazin-3-yl)-N-(1-methyl-1H-pyrazol-4-yl)azetidine-3-carboxamide] | 0.00127 µM | – | – | 49.6% | 0.0401 µM | – | – | 0.0528 µM | 0.0103 µM |
| Cc1nnn(-c2ccc(C(F)F)cc2)c1COc1ccc(N2CC(C(=O)N3CCOCC3)C2)nn1 [Example 104, (1-(6-((1-(4-(Difluoromethyl)phenyl)-4-methyl-1H-1,2,3-triazol-5-yl)methoxy)pyridazin-3-yl)azetidin-3-yl)(morpholino)methanone] | 0.00177 µM | 0.0095 | 3890 ng/mL | 49.9% | – | – | – | – | – |
| Cc1nnn(-c2ccc(C(F)F)cc2)c1COc1ccc(N2CCN(C3CC3)C(=O)C2)nn1 [Example 108, 1-Cyclopropyl-4-(6-((1-(4-(difluoromethyl)phenyl)-4-methyl-1H-1,2,3-triazol-5-yl)methoxy)pyridazin-3-yl)piperazin-2-one] | 0.00166 µM | 0.0208 | 1780 ng/mL | 52.2% | – | – | – | – | – |
| Cc1nnn(-c2ccc(C(F)F)cc2)c1COc1ccc(N2C[C@H]3C[C@@H]2C(=O)N3)nn1 [Example 116, (1R,4R)-5-(6-((1-(4-(Difluoromethyl)phenyl)-4-methyl-1H-1,2,3-triazol-5-yl)methoxy)pyridazin-3-yl)-2,5-diazabicyclo[2.2.1]heptan-3-one] | 0.00166 µM | – | – | 48.4% | 0.0501 µM | – | – | 0.0652 µM | 0.0227 µM |
| Cc1nnn(-c2ccc(C(F)F)cc2)c1COc1ccc(N2CCN3c4ccccc4NC(=O)[C@@H]3C2)nn1 [Example 122, (S)-3-(6-((1-(4-(Difluoromethyl)phenyl)-4-methyl-1H-1,2,3-triazol-5-yl)methoxy)pyridazin-3-yl)-2,trans-3,4,4a-tetrahydro-1H-pyrazino[1,2-a]quinoxalin-5(6H)-one] | 0.00246 µM | – | – | 48.7% | 0.149 µM | – | – | 0.266 µM | 0.0673 µM |
| Cn1nnc(-c2ccc(C(F)F)cc2)c1COc1ccc(N2CCNC(=O)C2)nn1 [Example 127, 4-(6-((4-(4-(Difluoromethyl)phenyl)-1-methyl-1H-1,2,3-triazol-5-yl)methoxy)pyridazin-3-yl)piperazin-2-one] | 0.00208 µM | – | – | 55% | 0.0237 µM | – | – | 0.4 µM | 0.0367 µM |
| Cc1ccc(-n2nnc(C)c2COc2ccc(N3CCN4CCNC(=O)[C@@H]4C3)nn2)cc1 [Example 129, (S)-8-(6-((4-Methyl-1-(p-tolyl)-1H-1,2,3-triazol-5-yl)methoxy)pyridazin-3-yl)octahydro-1H-pyrazino[1,2-a]pyrazin-1-one] | 0.00975 µM | – | – | 56.3% | 0.168 µM | – | – | 0.911 µM | 0.195 µM |
| Cc1nnn(-c2ccc(C(F)F)cc2)c1COc1ccc(N2CCN3CCN(C4CC4)C(=O)[C@@H]3C2)nn1 [Example 148, (S)-2-Cyclopropyl-8-(6-((1-(4-(difluoromethyl)phenyl)-4-methyl-1H-1,2,3-triazol-5-yl)methoxy)pyridazin-3-yl)hexahydro-2H-pyrazino[1,2-a]pyrazin-1(6H)-one] | 0.0025 µM | – | – | 42.6% | 0.117 µM | – | – | 0.445 µM | 0.0562 µM |
| Cc1nnn(-c2ccc(C(F)F)cc2)c1COc1ccc(N2CC(=O)N3CCOC[C@H]3C2)nn1 [Example 173, (R)-8-(6-((1-(4-(Difluoromethyl)phenyl)-4-methyl-1H-1,2,3-triazol-5-yl)methoxy)pyridazin-3-yl)hexahydropyrazino[2,1-c][1,4]oxazin-6(1H)-one] | 0.00055 µM | – | – | 50.8% | 0.0168 µM | – | – | 0.0806 µM | 0.0141 µM |
